Test results published in US6680332B1, “Substituted 5-oxo-5,6,7,8-tetrahydro-4H-1-benzopyrans and benzothiopyrans and the use thereof as potentiators of AMPA” (Euro-Celtique S.A., priority 1999, dated 2004).
“And” between values parts separate entries of the source, which are not always exact repeats. Equal entries are not always repeated.

Tests used:
AMPA receptors = assay: Electrophysiology: potentiation of AMPA-evoked membrane currents in Xenopus oocytes injected with rat cortical poly(A)+ RNA (two-electrode voltage clamp); format: cell-based; conditions: 10 μM AMPA; for AMPA positive potentiation 2-fold @ μM (concentration required for 2-fold potentiation of the AMPA response): rat cortical poly(A)+ RNA, holding potential -70 mV
Method: FIG. 1 depicts a graph showing the concentration-effect relationship for the potentiation of AMPA-evoked currents in Xenopus oocytes by the compound of Example 4. Xenopus oocytes were injected with rat cortical poly (A+) RNA and membrane currents were measured by a standard, two-microelectrode voltage clamp method. A solution of AMPA (10 μM) was superfused through the recording chamber in the absence (control) or presence of increasing concentrations of the compound of Example 4. “I” is membrane current.
The novel compounds of the invention were assessed by electrophysiological assays in Xenopus oocytes expressing rat […] poly(A)^+ RNA (see Keana et al, J. Med. Chem. 38:4367-4379 (1995)) or in cultured rat cortical neurons (see Woodward et al., Mol. Pharmacol. 47:568-581 (1995)) for AMPA receptor activity. The compounds that potentiate currents across the oocyte membrane are expected to be useful as cognitive enhancers or for the treatment of schizophrenia, myoclonus or neurodegenerative diseases such as Parkinson's disease and Alzheimer's disease. Thus, the present invention is directed to compounds that are positive modulators of AMPA receptors.
Total RNA was prepared from rat cerebral cortex by homogenization in urea/LiCl followed by phenol/chloroform extraction. Polyadenylated (poly A^+) mRNA was isolated from total cellular RNA by oligo-dT cellulose chromatography. Xenopus oocytes were prepared by the method of Woodward et al. (Mol. Pharmacol. 41, 89-103 (1992)). Oocytes were microinjected with approximately 50 ng of cortical poly(A)^+ RNA and stored in Barth's medium (containing in mM: NaCl, 88; KCl, 1; CaCl2, 0.41; Ca(NO3)2, 0.33; MgSO4, 0.82; NaHCO3, 2.4; HEPES 5; pH 7.4, with 0.1 mg/ml gentamycin sulphate) for 6 days prior to recording. Membrane current responses were recorded in frog Ringer solution containing (in mM): NaCl, 115; KCl, 2; CaCl2, 1.8; HEPES, 5; pH 7.4, or in a nominally Ca^2+-free Ringer solution containing (in mM): NaCl, 115; KCl, 2; BaCl2, 1.8; HEPES, 5; pH 7.4. Electrical recordings were made using a conventional two-electrode voltage clamp (Dagan TEV-200). The oocyte was placed in a 5 ml chamber lined with nylon mesh, impaled with two micro-electrodes and voltage-clamped at a holding potential of −70 mV. A scaled up linear array system (Benveniste and Mayer, J. Physiol. 464, 131-163 (1993)) was used to superfuse the oocyte in Ringer solution and to apply drugs and wash solutions. A control concentration (10 μM) of AMPA was applied to the oocyte to determine a baseline membrane current response. The modulation of this response by AMPA potentiators was measured by applying increasing concentrations of the potentiator in Ringer solution for ˜30 s followed by coapplication of the potentiator with 10 μM AMPA. The resulting membrane current responses were analyzed by sigmoidal curve fitting (Origin, Microcal Software, Inc.).

Row | EC50 (AMPA receptors; sigmoidal curve fitting, read-out: half-maximally effective concentration for potentiation of the AMPA response) | melting point | Molecule | AMPA positive potentiation 2-fold @ μM (concentration required for 2-fold potentiation of the AMPA response) (AMPA receptors) | maximal potentiation of the AMPA response (AMPA receptors; at 100 μM compound)
1 |  |  | 2-Amino-3-cyano-7,7-dimethyl-4-(3,4-difluoromethylenedioxyphenyl)-5-oxo-5,6,7,8-tetrahydro-4H-1-benzopyran [Example 15] | 18.0 µM | 
2 |  |  | COc1ccc(C2C(C#N)=C(N)OC3=C2C(=O)CC(C)(C)C3)cc1 (stereo not drawn) [Example 1, 2-Amino-3-cyano-7,7-dimethyl-4-(4-methoxyphenyl)-5-oxo-5,6,7,8-tetrahydro-4H-1-benzopyran] | 7.0 µM | 
3 |  |  | Cc1cc(C)c(C2C(C#N)=C(N)OC3=C2C(=O)CC(C)(C)C3)c(C)c1 (stereo not drawn) [Example 2, 2-Amino-3-cyano-7,7-dimethyl-4-(2,4,6-trimethylphenyl)-5-oxo-5,6,7,8-tetrahydro-4H-1-benzopyran] | 4.0 µM | 
4 |  |  | CC1(C)CC(=O)C2=C(C1)OC(N)=C(C#N)C2c1ccccc1 (stereo not drawn) [Example 3, 2-Amino-3-cyano-7,7-dimethyl-4-phenyl-5-oxo-5,6,7,8-tetrahydro-4H-1-benzopyran] | 12.0 µM | 
5 | 16.6 µM |  | CC1(C)CC(=O)C2=C(C1)OC(N)=C(C#N)C2c1ccc2c(c1)OCO2 (stereo not drawn) [Example 4, 2-Amino-3-cyano7,7-dimethyl-4-(3,4-methylenedioxyphenyl)-5-oxo-5,6,7,8-tetrahydro-4H-1-benzopyran] | 4 µM and 4.0 µM | 11 fold
6 |  | 209 to 212 °C | COc1ccc(C2C(C#N)=C(N)OC3=C2C(=O)CCC3)cc1 (stereo not drawn) [Example 5, 2-Amino-3-cyano-4-(4-methoxyphenyl)-5-oxo-5,6,7,8-tetrahydro-4H-1-benzopyran] | 35.0 µM | 
7 |  |  | CC1(C)CC(=O)C2=C(C1)OC(N)=C(C#N)C2c1ccc(Cl)cc1 (stereo not drawn) [Example 6, 2-Amino-3-cyano-4-(4chlorophenyl)-7,7-dimethyl-5-oxo-5,6,7,8-tetrahydro-4N-1-benzopyran] | 18.0 µM | 
8 |  | 214 to 217 °C | CC1(C)CC(=O)C2=C(C1)OC(N)=C(C#N)C2c1cccc(O)c1 (stereo not drawn) [Example 7, 2-Amino-3-cyano-7,7-dimethyl-4-(3-hydroxyphenyl)-5-oxo-5,6,7,8-tetrahydro-4H-1-benzopyran] | 12.0 µM | 
9 |  |  | Cc1ccc(C2C(C#N)=C(N)OC3=C2C(=O)CC(C)(C)C3)cc1 (stereo not drawn) [Example 8, 2-Amino-3-cyano-7,7-dimethyl-4-(4-methylphenyl)-5-oxo-5,6,7,8-tetrahydro-4H-1-benzopyran] | 12.0 µM | 
10 |  | 221 to 224 °C | CN(C)c1ccc(C2C(C#N)=C(N)OC3=C2C(=O)CC(C)(C)C3)cc1 (stereo not drawn) [Example 9, 2-Amino-3-cyano-7,7-dimethyl-4-(4-dimethylaminophenyl)-5-oxo-5,6,7,8-tetrahydro-4H-1-benzopyran] | 12.0 µM | 
11 |  |  | CC1(C)CC(=O)C2=C(C1)OC(N)=C(C#N)C2c1ccc(O)cc1 (stereo not drawn) [Example 10, 2-Amino-3-cyano-7,7-dimethyl-4-(4-hydroxyphenyl)-5-oxo-5,6,7,8-tetrakydro-4H-1-benzopyran] | 14.0 µM | 
12 |  |  | COc1cccc(C2C(C#N)=C(N)OC3=C2C(=O)CC(C)(C)C3)c1 (stereo not drawn) [Example 11, 2-Amino-3-cyano-7,7-dimethyl-4-(3-methzoxyphenyl)-5-oxo-5,6,7,8-tetrahydro-4H-1-benzopyran] | 6.0 µM | 
13 |  |  | CC1(C)CC(=O)C2=C(C1)OC(N)=C(C#N)C2c1ccc([N+](=O)[O-])cc1 (stereo not drawn) [Example 12, 2-Amino-3-cyano-7,7-dimethyl-4-(4-nitrophenyl)-5-oxo-5,6,7,8-tetrakydro-4H-1-benzopyran] | 60.0 µM | 
14 |  | 222 to 224 °C | CC1(C)CC(=O)C2=C(C1)OC(N)=C(C#N)C2c1ccncc1 (stereo not drawn) [Example 13, 2-Amino-3-cyano-7,7-dimethyl-4-(4-pyridyl)-5-oxo-5,6,7,8-tetrahydro-4H-1-benzopyran] | 60.0 µM | 
15 |  |  | COc1cc(C2C(C#N)=C(N)OC3=C2C(=O)CC(C)(C)C3)cc2c1OCO2 (stereo not drawn) [Example 14, 2-Amino-3-cyano-7,7-dimethyl-4-(3-methoxy-4,5-methylenedioxyphenyl)-5-oxo-5,6,7,8-tetrahydro-4H-1-benzopyran] | 12.0 µM | 
16 |  | 227 to 230 °C | CC1(C)CC(=O)C2=C(C1)OC(N)=C(C#N)C2c1ccc(C#N)cc1 (stereo not drawn) [Example 16, 2-Amino-3-cyano-4-(4-cyanophenyl)-7,7-dimethyl-5-oxo-5,6,7,8-tetrahydro-4H-1-benzopyran] | 20.0 µM | 
17 |  | 189 to 193 °C | CC1(C)CC(=O)C2=C(C1)OC(N)=C(C#N)C2c1ccc(F)cc1 (stereo not drawn) [Example 17, 2-Amino-3-cyano-7,7-dimethyl-4-(4-fluorophenyl)-5-oxo-5,6,7,8-tetrahydro-4H-1-benzopyran] | 27.0 µM | 
18 |  | 259 to 262 °C | CC1(C)CC(=O)C2=C(C1)OC(N)=C(C#N)C2c1ccc2ccccc2c1 (stereo not drawn) [Example 18, 2-Amino-3-cyano-7,7-dimethyl-4-(2-naphthyl)-5-oxo-5,6,7,8-tetrahydro-4H-1-benzopyran] | 1.6 µM | 
